Measured values from patent publication US20220167627A1, “Microbial preparation of bacillus” (priority 2020, published 2022).

Experiments:
rice seedlings = assay: IAA sensitivity test on rice seedlings; format: in vivo
Method: Taking rice and lettuce for example, IAA sensitivity of the microbial preparation is tested in steps of: disinfecting and germinating rice seedlings; putting the rice seedlings in a sterilized Petri dish in which a filter paper is disposed; […]; moving the sterilized Petri dish into a plant growth box for 4 days; measuring an average height of buds of the rice seedlings and an average height of roots of the rice seedlings;

lettuce = assay: IAA sensitivity test on lettuce; format: in vivo
Method: Taking rice and lettuce for example, IAA sensitivity of the microbial preparation is tested in steps of: disinfecting seeds of the lettuce with 5% sodium hypochlorite and putting the seeds of the lettuce in another sterilized Petri dish in which a filter paper is disposed; adding 3 mL of 0.03 μM, 3 μM, 30 μM, and 300 μM of IAA aqueous solutions respectively; moving another sterilized Petri dish into another plant growth box for 3 days; and measuring a germination rate and a height of each lettuce and a length of a root of each lettuce.

In the case of `O=C(O)Cc1c[nH]c2ccccc12` [IAA], the “growth of the roots of the rice seedlings” value (rice seedlings; IAA 0.03 μM to 30 μM, 4 days, FIG. 1) was “does not promote a growth of the roots”, the “growth of the roots of the rice seedlings” value (rice seedlings; IAA 300 μM, 4 days, FIG. 1) was “limited” and the “growth of the roots of the rice seedlings” value (rice seedlings; IAA within 0.00003 μM to 0.003 μM) was “do not grow obviously”. The “growth of the lettuce seedlings” value (lettuce; IAA 0.03 μM (lowest concentration), 3 days) was “reduces a growth of the lettuce seedlings”, the “height of lettuce sprouts” value (lettuce; IAA 0.03 μM, 3 days (no IAA: 5.3 mm)) was 3.5 mm and the “length of lettuce roots” value (lettuce; IAA 0.03 μM, 3 days (no IAA: 14.8 mm)) was 8.8 mm. The “germination rate of seeds of the lettuce” value (lettuce; IAA 300 μM, 3 days (no IAA: 78%)) was 13%.
